Experimental data: patent US20230255988A1 (CORNELL UNIVERSITY, priority 2020, published 2023)
Entries after “also recorded” stand apart in the source; their conditions may differ.

Assays:
Type in all cases: in vivo, human
[1] = test system: amyloid positive patients with amnestic mild cognitive impairment (aMCI) or mild dementia due to AD; assay: AD Assessment Scale-Cognitive Subscale (ADAS-Cog), 12-month randomized placebo-controlled trial
Description: ADAS-cog served as the primary endpoint. […] Assignment of patients. […] Using blocked, stratified randomization design, patients were assigned to the treatment or control group. […] Within this group, a separate randomization schedule was generated using the proc plan function in SAS statistics program for those with an MMSE greater than or less than or equal to 26 to balance their allocation patients to placebo or treatment groups. Using a block size of four for a total of seventy-six patients, 19 blocks were created to help ensure balanced recruitment into treatment and control groups within strata. The schedule was generated in advance by the statistician and provided to the blinded pharmacist in charge of executing the randomization. Two randomization worksheets stratified by MMSE were provided to the pharmacist, who randomized the patients. […] The patients were enrolled by the clinical study team and randomized by the pharmacist. The assignment to the treatment or placebo group was known only to the pharmacist and kept behind a triple lock. The patients received numbered bottles. The trial duration per participant was twelve months. […] AD Assessment Scale-Cognitive Subscale (ADAS-Cog) was the primary outcome measure. It indicates the severity of the most important symptoms of Alzheimer's disease. It consists of 11 tasks measuring the disturbances of memory, language, praxis, attention and other cognitive abilities (S. Balsis et al., Alzheimer's & Dementia, 8, 288-294, 2012; […] al., International Psychogeriatrics, 9, 123-138, 1997). The primary clinical outcome was ADAS-Cog, and secondary outcomes included the CDR score and fluorodeoxyglucose ([…]) imaging of the brain. AGE levels were an exploratory outcome. The primary analysis followed Intention-to-Treat (ITT) and the secondary analysis was per-protocol. The per-protocol analysis omitted one placebo participant who took benfotiamine from a commercial vendor. The ITT and per-protocol analysis are presented for the primary outcome ADAS-cog and the secondary measure CDR. For the other measures, only per-protocol analysis are presented. The primary analysis was done on the ITT data. The Last-Observation-Carry-Forward (LOCF) method was used to impute the missing values of ADAS total score and the secondary endpoints such as CDR as well for each time point. The primary analysis was done on ITT data which were imputed with LOCF method. Per-protocol analysis was done as a sensitivity analysis and as observational comparisons (F. J. Molnar et al., Canadian Medical Association Journal, 179, 751, 2008).

[2] = test system: brain glucose utilization; assay: FDG PET spatial covariance pattern score (SSM/PCA, CDR-derived)
Description: A multivariate machine learning approach was also applied to evaluate the FDG PET data (FIG. 10). Pattern-based methods have been increasingly applied to the evaluation of neurodegeneration and therapeutic response as they address the issue of complexity in comparing multiple regions and can increase signal to noise for analysis. Feature reduction was performed through use of the Scaled Subprofile Model (SSM), a form of Principal Components Analysis (PCA). The resulting components were used in regression modeling that determined spatial patterns of hypometabolism and hypermetabolism (or preservation relative to other regions) associated with the Clinical Dementia Rating (CDR) score.
Specifically, SSM by performing PCA on the PET-data array was run, with a subsequent brain-behavioral regression to derive a best-fitting pattern whose pattern scores correlates with the CDR score in a negative direction (i.e., the higher the pattern score, the lower the CDR).
To help with the imputation of the multivariate analysis, a generic multivariate decomposition was written as: Y(s,x)=w(s) v(x)+ε(s,x), where Y denotes the (log-transformed) data which depends on a participant and time index s and the voxel location x. […] The pattern score w(s) was chosen to correlate negatively with CDR across the data. The pattern v(x) is normalized to have unity Euclidean norm, i.e. ||v||=1. This means that the pattern score carries all information about the strength of the signal associated with the spatial pattern. Higher values of w(s) imply higher values of pattern-associated FDGPET signal in direct proportion in all regions.
To estimate the topographic robustness of any patterns of interest, a bootstrap resampling procedure was performed 10,000 times, for which data were resampled with replacement and the complete analytic recipe was executed on the resampled data, generating distribution for pattern loadings. […] For the correct interpretation, it is worth noting that positive and negative loadings describe only relative, and not absolute differences, in the signal associated with any covariance pattern. Since the residual signal in ε(s,x) was stripped off, there cannot be assurance that there are absolute differences in the total data for the regions with robust loadings.
After deriving and estimating the topographic robustness of the pattern, the pattern score was inspected for an effect of treatment at baseline and follow-up, also broken down by APOE ε4 status.

[3] = test system: amyloid positive patients with amnestic mild cognitive impairment (aMCI) or mild dementia due to AD; assay: Clinical dementia rating (CDR) score, 12-month trial
Description: ADAS-cog served as the primary endpoint. […] The trial duration per participant was twelve months. […] Clinical dementia rating (CDR) score. CDR is a five-point scale used to characterize six domains of cognitive and functional performance applicable to Alzheimer's disease and related dementias: Memory, Orientation, Judgment & Problem Solving, Community Affairs, Home & Hobbies, and Personal Care. A higher score indicates greater dementia (C. P. Hughes et al., British Journal of Psychiatry, 140, 566-572, 1982). The primary clinical outcome was ADAS-Cog, and secondary outcomes included the CDR score and fluorodeoxyglucose ([…]) imaging of the brain. AGE levels were an exploratory outcome. The primary analysis followed Intention-to-Treat (ITT) and the secondary analysis was per-protocol. The per-protocol analysis omitted one placebo participant who took benfotiamine from a commercial vendor. The ITT and per-protocol analysis are presented for the primary outcome ADAS-cog and the secondary measure CDR. For the other measures, only per-protocol analysis are presented.

In the case of `C/C(=C(\CCOP(=O)(O)O)SC(=O)c1ccccc1)N(C=O)Cc1cnc(C)nc1N` [benfotiamine], the “ADAS-cog change from baseline at 12 months” value ([1]; ITT analysis, 2×300 mg per day, 12 months, placebo 3.26) is reported as 1.39, the “ADAS-cog unadjusted change baseline to 12 months, difference versus placebo” value ([1]; ITT, mixed effect model p=0.071, GEE p=0.137, Wilcoxon p=0.098) is reported as “favoring benfotiamine” and the “ADAS score change Mean (SD), baseline to month 12” value ([1]; Per-protocol, unadjusted, 2×300 mg per day, placebo 3.2 (5.66)) is reported as 0.96 (5.41). The “ADAS-cog effect modification by APOE ε4 allele carrier status” value ([1]; exploratory) was “no effect modification”, the “ADAS-cog effect modification by sex” value ([1]; exploratory, not statistically significant) was “males might have been more responsive” and the “ADAS-cog response by baseline MMSE” value ([1]; post-hoc, MMSE>=26 p=0.027, MMSE<26 p=0.99) was “stronger response among those with a higher MMSE at baseline”. The “CDR-derived FDG PET pattern, treatment effect in APOE ε4 negative population” value ([2]; 12 months, p=0.019) was “treatment effect at 12 months; also recorded: show a treatment effect”, the “CDR-derived FDG PET pattern, treatment effect in APOE ε4 positive population” value ([2]; 12 months, p=0.255) was “not in APOE ε4 positive population; also recorded: do not” and the “longitudinal change in pattern score (follow-up minus baseline), treated versus untreated” value ([2]; 59 participants who completed follow-up, p=0.638) was “No difference in longitudinal change”. For the same compound, the “FDG PET pattern score at time point of 12 months, treatment versus untreated” value ([2]; FIG. 10A) was “slightly but significantly higher”, the “FDG PET pattern score, change from baseline to 12 months versus untreated” value ([2]; all participants, APOE status not considered) was “significantly higher change from baseline to 12 months in treated than untreated participants” and the “Mean change in global CDR from baseline to 12 months” value ([3]; 2×300 mg per day, placebo 0.22, p=0.034) was 0.05. The “reduction of deterioration (global CDR change versus placebo)” value ([3]; baseline to 12 months) was 77%, the “CDR response by APOE ε4 status” value ([3]; non-APOE ε4 group p=0.013) was “non-APOE ε4 group seemed to respond much more; also recorded: only the non-APOE ε4 allele group differs” and the “mean change in CDR-SB from baseline to 12 months, versus placebo” value ([3]; p=0.078) was “difference at trend level”.
